Data: paper PMC11868595, “Safety, pharmacokinetics and efficacy of HA121-28 in patients with advanced solid tumors and RET fusion-positive non-small-cell lung cancer: a multicenter, open-label, single-arm phase 1/2 trial” (Signal Transduction and Targeted Therapy, 2025)

Columns and labels:
[1] = Cynomolgus monkey plasma kinetics; assay type: in vivo
RON = RON (Homo sapiens, UniProt Q04912); assay: Tyrosine kinase inhibition; assay type: biochemical
ECA-109 cells = assay: Tumor cell proliferation in vitro; assay type: cell-based, human
RET and ERK activation = assay: Activation of RET and ERK in TT cells; assay type: cell-based, human; conditions: concentration-dependent
HCT116 cells = assay: Tumor cell proliferation in vitro; assay type: cell-based
TT cells = assay: Tumor cell proliferation in vitro; assay type: cell-based, human
SGC-7901 cells = assay: Tumor cell proliferation in vitro; assay type: cell-based, human; conditions: SGC7901
[2] = 28-day repeated dose toxicity; assay type: in vivo, Beagle dogs
PDGFRα = PDGFRα (Homo sapiens, UniProt P16234); assay: Tyrosine kinase inhibition; assay type: biochemical
Rat plasma kinetics = assay type: in vivo
Q-T interval = conditions: single oral dose 5, 10, and 15 mg/kg
HER-2 = HER-2 (Homo sapiens, UniProt P04626); assay: Tyrosine kinase inhibition; assay type: biochemical; conditions: read-out: IC50, HER2
EGFR and ERK activation = assay: EGF-stimulated activation of EGFR and ERK in A431 cells; assay type: cell-based, human; conditions: 10 ng/mL EGF, concentration-dependent
EGFR(T790M /L828R) = EGFR(T790M /L828R) (Homo sapiens, UniProt P00533, T790M); assay: Tyrosine kinase inhibition; assay type: biochemical
ABL1 = ABL1 (Homo sapiens, UniProt P00519); assay: Tyrosine kinase inhibition; assay type: biochemical
Metabolites in plasma [3] = conditions: rats
Plasma protein binding = assay type: in vitro ADME; conditions: dogs
VEGFR and ERK activation = assay: VEGF165-stimulated activation of VEGFR and ERK in HUVEC cells; assay type: cell-based, human; conditions: 50 ng/mL VEGF165, concentration-dependent
Metabolites in plasma [4] = conditions: dogs

Chain of ABL1 (P00519 whole entry): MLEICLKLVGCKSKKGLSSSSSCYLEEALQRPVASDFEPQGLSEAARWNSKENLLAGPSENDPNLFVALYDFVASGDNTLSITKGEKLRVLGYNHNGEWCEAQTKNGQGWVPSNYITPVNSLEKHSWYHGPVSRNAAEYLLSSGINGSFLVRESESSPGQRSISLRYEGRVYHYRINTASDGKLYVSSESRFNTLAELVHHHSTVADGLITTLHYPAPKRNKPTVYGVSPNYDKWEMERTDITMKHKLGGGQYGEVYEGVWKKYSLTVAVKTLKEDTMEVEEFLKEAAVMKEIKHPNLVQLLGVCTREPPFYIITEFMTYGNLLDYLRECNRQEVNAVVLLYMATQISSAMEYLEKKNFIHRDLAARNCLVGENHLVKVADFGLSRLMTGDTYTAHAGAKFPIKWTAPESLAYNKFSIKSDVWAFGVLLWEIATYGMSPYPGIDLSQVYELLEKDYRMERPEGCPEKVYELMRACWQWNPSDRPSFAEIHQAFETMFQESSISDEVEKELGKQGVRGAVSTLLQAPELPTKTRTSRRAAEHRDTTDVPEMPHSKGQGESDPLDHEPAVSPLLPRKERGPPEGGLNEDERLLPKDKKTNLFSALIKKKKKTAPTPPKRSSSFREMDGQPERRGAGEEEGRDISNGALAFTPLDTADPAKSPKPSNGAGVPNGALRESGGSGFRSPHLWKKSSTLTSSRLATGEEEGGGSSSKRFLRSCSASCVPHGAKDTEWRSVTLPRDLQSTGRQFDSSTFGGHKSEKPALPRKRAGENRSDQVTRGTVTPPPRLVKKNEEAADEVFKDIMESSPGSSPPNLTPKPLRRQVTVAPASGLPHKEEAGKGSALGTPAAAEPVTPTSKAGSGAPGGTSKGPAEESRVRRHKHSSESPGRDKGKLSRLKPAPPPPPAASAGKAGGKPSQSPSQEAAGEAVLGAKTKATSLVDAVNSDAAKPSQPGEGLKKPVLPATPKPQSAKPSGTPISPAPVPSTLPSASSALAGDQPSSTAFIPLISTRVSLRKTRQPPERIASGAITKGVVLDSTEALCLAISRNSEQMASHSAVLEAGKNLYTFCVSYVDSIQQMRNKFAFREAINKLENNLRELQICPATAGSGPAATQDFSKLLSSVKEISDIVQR
Chain of RON (Q04912 25-1400): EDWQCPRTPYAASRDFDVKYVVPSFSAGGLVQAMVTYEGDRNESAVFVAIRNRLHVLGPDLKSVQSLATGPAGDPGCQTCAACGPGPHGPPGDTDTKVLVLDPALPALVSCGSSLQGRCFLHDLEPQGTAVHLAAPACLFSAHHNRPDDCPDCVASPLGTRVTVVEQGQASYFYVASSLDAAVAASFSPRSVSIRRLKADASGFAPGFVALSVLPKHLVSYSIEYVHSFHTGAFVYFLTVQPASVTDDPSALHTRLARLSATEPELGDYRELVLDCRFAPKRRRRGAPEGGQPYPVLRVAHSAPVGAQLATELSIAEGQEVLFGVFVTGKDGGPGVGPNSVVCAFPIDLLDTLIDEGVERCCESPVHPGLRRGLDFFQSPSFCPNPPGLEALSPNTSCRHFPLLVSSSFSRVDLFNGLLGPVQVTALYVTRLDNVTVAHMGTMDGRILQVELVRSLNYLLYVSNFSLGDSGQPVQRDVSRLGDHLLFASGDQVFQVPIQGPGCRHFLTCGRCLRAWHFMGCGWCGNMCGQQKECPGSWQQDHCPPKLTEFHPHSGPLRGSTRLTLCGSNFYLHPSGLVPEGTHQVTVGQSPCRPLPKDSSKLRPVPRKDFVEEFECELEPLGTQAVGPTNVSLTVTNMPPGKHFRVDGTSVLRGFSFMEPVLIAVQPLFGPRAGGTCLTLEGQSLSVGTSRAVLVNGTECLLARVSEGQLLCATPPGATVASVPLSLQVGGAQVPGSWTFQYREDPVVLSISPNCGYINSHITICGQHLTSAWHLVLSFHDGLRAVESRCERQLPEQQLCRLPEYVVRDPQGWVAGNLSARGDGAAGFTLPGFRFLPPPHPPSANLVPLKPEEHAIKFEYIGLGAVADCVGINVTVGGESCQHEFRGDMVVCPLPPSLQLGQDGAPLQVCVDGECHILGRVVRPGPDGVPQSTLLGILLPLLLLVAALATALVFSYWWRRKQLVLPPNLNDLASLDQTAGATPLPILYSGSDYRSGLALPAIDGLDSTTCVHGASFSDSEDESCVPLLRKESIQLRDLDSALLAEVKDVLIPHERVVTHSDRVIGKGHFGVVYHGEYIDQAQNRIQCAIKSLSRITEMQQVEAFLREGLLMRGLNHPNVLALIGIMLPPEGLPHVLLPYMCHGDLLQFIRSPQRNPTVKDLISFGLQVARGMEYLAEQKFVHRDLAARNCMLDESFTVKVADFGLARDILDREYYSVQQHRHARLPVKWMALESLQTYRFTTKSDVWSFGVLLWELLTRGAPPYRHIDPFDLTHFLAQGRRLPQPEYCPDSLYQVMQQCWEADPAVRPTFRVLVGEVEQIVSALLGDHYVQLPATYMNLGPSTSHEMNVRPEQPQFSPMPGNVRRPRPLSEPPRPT
Chain of PDGFRα (P16234 24-1089): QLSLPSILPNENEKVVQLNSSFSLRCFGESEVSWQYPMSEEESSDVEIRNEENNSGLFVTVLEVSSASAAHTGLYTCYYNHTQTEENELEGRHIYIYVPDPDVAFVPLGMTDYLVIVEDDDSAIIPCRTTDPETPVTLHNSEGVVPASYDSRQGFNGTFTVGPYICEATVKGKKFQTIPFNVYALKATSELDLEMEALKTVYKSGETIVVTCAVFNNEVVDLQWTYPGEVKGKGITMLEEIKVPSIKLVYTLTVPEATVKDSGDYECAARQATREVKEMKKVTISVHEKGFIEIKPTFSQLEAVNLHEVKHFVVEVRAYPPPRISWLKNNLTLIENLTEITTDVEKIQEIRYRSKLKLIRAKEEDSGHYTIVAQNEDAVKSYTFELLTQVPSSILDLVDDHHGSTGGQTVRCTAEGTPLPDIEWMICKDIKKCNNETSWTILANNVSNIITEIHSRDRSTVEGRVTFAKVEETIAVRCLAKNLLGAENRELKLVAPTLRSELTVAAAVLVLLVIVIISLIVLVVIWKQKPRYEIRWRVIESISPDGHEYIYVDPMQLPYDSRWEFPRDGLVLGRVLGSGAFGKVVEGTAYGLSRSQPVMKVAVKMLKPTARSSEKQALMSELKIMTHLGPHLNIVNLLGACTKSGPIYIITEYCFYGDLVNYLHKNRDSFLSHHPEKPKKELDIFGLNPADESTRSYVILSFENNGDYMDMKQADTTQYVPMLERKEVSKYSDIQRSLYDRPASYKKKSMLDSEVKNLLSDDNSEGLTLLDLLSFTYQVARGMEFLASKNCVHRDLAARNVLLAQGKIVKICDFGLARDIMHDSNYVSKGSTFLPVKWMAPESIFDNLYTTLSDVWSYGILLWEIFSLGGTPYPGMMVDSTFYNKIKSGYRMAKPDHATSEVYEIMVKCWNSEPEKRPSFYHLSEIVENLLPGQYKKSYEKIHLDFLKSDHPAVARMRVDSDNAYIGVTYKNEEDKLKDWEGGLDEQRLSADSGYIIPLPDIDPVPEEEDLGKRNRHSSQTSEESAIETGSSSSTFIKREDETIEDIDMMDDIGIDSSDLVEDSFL
Chain of HER-2 (P04626 23-1255): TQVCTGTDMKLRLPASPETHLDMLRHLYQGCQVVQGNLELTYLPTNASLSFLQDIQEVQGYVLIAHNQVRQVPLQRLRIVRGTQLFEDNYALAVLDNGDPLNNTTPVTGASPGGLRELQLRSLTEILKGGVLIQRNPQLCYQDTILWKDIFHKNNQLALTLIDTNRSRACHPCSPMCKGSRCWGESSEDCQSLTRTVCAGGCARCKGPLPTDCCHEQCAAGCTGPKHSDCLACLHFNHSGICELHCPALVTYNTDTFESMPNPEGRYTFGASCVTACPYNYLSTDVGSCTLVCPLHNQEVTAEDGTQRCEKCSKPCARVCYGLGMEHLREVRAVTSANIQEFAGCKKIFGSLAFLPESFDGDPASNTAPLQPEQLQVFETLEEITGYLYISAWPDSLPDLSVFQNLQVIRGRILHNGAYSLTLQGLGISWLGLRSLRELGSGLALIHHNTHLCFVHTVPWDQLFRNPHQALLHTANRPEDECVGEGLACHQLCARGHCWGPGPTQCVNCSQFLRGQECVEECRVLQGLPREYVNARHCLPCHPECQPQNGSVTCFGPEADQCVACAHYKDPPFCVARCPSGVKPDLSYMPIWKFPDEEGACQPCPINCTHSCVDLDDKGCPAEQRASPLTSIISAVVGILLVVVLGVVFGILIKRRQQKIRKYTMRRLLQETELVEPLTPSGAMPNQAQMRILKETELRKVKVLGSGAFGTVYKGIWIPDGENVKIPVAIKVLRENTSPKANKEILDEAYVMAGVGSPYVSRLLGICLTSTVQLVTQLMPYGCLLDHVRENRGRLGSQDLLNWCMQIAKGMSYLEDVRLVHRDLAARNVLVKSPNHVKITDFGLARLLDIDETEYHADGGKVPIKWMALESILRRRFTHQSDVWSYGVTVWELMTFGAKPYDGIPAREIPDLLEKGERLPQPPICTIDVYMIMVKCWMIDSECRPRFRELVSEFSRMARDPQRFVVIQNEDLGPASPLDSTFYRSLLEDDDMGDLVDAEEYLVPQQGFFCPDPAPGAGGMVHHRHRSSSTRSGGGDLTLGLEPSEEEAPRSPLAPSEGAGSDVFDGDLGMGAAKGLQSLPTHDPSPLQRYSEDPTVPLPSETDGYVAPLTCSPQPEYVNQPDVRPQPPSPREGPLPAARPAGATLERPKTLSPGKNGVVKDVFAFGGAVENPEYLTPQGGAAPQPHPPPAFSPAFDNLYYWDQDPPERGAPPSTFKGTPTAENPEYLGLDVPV

For `COc1cc2c(Nc3ccc(Br)cc3F)ncnc2cc1OCCCCN(C)C.Cl.Cl` [HA121-28, N-(4-bromo-2-fluorophenyl)-7-(4-(dimethylamino)butoxy)-6-methoxy quinazolin-4-amine dihydrochloride], the AUC0-72h ([1]; gavage (5 mg/kg)) was 1680 ± 766 ng·h/mL, the “AUC0-∞” value ([1]; gavage (5 mg/kg)) was 1920 ± 992 ng·h/mL and the CL ([1]; gavage (5 mg/kg)) was 50.8 ± 20.3 mL/min/kg. For the same molecule, the Cmax ([1]; gavage (5 mg/kg)) was 75.9 ± 27.8 ng/mL, the MRT0-72h ([1]; gavage (5 mg/kg)) was 20.9 ± 2.67 h and the “MRT0-∞” value ([1]; gavage (5 mg/kg)) was 30.5 ± 8.00 h. For the same molecule, the Tmax ([1]; gavage (5 mg/kg)) was 6.75 ± 1.50 h, the Vd ([1]; gavage (5 mg/kg)) was 100 ± 24.1 L/kg and the t1/2 ([1]; gavage (5 mg/kg)) was 24.4 ± 5.68 h. For the same molecule, the AUC0-72h ([1]; intravenous (5 mg/kg)) was 2610 ± 1340 ng·h/mL, the “AUC0-∞” value ([1]; intravenous (5 mg/kg)) was 3000 ± 1880 ng·h/mL and the C6min ([1]; intravenous (5 mg/kg)) was 314 ± 61.4 ng/mL. For the same molecule, the CL ([1]; intravenous (5 mg/kg)) was 34.2 ± 13.6 mL/min/kg, the MRT0-72h ([1]; intravenous (5 mg/kg)) was 18.8 ± 3.77 h and the “MRT0-∞” value ([1]; intravenous (5 mg/kg)) was 27.5 ± 11.4 h. For the same molecule, the Vd ([1]; intravenous (5 mg/kg)) was 58.7 ± 15.7 L/kg, the t1/2 ([1]; intravenous (5 mg/kg)) was 22.3 ± 8.39 h and the “F (oral bioavailability)” value ([1]; monkey) was 64.4%. The IC50 (RON) was over 10 µM, the IC50 (ECA-109 cells) was 6.663 ± 0.0545 µM and the “activation of RET and downstream ERK” value (RET and ERK activation) was “significantly inhibited”. The IC50 (HCT116 cells) was 1.42 ± 0.236 µM, the IC50 (TT cells) was 3.83 ± 0.0915 µM and the IC50 (SGC-7901 cells) was 4.36 ± 0.338 µM. For the same molecule, the “no observed adverse effect level (NOAEL)” value ([2]; 28 d, Beagle dog) was 12 mg/kg, the “highest non-severely toxic dose (HNSTD)” value ([2]; oral, four consecutive weeks) was 12 mg/kg and the IC50 (PDGFRα) was 0.0587 µM. For the same molecule, the AUC0-96h (Rat plasma kinetics; 7 consecutive days (10 mg/kg)) was 8420 ± 1720 ng·h/mL, the “AUC0-∞” value (Rat plasma kinetics; 7 consecutive days (10 mg/kg)) was 9690 ± 2310 ng·h/mL and the CL (Rat plasma kinetics; 7 consecutive days (10 mg/kg)) was 39.3 ± 6.53 mL/min/kg. For the same molecule, the Cmax (Rat plasma kinetics; 7 consecutive days (10 mg/kg)) was 284 ± 56.8 ng/mL, the “MRT0-∞” value (Rat plasma kinetics; 7 consecutive days (10 mg/kg)) was 40.0 ± 7.30 h and the Tmax (Rat plasma kinetics; 7 consecutive days (10 mg/kg)) was 6.00 ± 0.00 h. It also gave a Vd (Rat plasma kinetics; 7 consecutive days (10 mg/kg)) of 110 ± 24.9 L/kg, a t1/2 (Rat plasma kinetics; 7 consecutive days (10 mg/kg)) of 32.9 ± 7.77 h and an AUC0-96h (Rat plasma kinetics; high dose (20 mg/kg)) of 6460 ± 849 ng·h/mL. For the same molecule, the “AUC0-∞” value (Rat plasma kinetics; high dose (20 mg/kg)) was 6760 ± 1040 ng·h/mL, the CL (Rat plasma kinetics; high dose (20 mg/kg)) was 50.3 ± 8.05 mL/min/kg and the Cmax (Rat plasma kinetics; high dose (20 mg/kg)) was 288 ± 38.5 ng/mL. For the same molecule, the MRT0-96h (Rat plasma kinetics; high dose (20 mg/kg)) was 22.8 ± 2.85 h, the “MRT0-∞” value (Rat plasma kinetics; high dose (20 mg/kg)) was 27.3 ± 5.24 h and the Tmax (Rat plasma kinetics; high dose (20 mg/kg)) was 5.00 ± 1.55 h. It also gave a Vd (Rat plasma kinetics; high dose (20 mg/kg)) of 96.8 ± 8.19 L/kg, a t1/2 (Rat plasma kinetics; high dose (20 mg/kg)) of 22.8 ± 5.00 h and an AUC0-96h (Rat plasma kinetics; intravenous (5 mg/kg)) of 1440 ± 214 ng·h/mL. For the same molecule, the “AUC0-∞” value (Rat plasma kinetics; intravenous (5 mg/kg)) was 1470 ± 232 ng·h/mL, the C5min (Rat plasma kinetics; intravenous (5 mg/kg)) was 246 ± 43.1 ng/mL and the CL (Rat plasma kinetics; intravenous (5 mg/kg)) was 57.8 ± 8.8 mL/min/kg. For the same molecule, the MRT0-96h (Rat plasma kinetics; intravenous (5 mg/kg)) was 17.2 ± 1.68 h, the “MRT0-∞” value (Rat plasma kinetics; intravenous (5 mg/kg)) was 19.0 ± 2.82 h and the Vd (Rat plasma kinetics; intravenous (5 mg/kg)) was 90.9 ± 12.3 L/kg. For the same molecule, the t1/2 (Rat plasma kinetics; intravenous (5 mg/kg)) was 18.5 ± 3.86 h, the AUC0-96h (Rat plasma kinetics; low dose (5 mg/kg)) was 1350 ± 419 ng·h/mL and the “AUC0-∞” value (Rat plasma kinetics; low dose (5 mg/kg)) was 1390 ± 438 ng·h/mL. For the same molecule, the CL (Rat plasma kinetics; low dose (5 mg/kg)) was 65.2 ± 19.8 mL/min/kg, the Cmax (Rat plasma kinetics; low dose (5 mg/kg)) was 58.7 ± 12.7 ng/mL and the MRT0-96h (Rat plasma kinetics; low dose (5 mg/kg)) was 19.2 ± 2.41 h. The “MRT0-∞” value (Rat plasma kinetics; low dose (5 mg/kg)) was 21.5 ± 3.23 h, the Tmax (Rat plasma kinetics; low dose (5 mg/kg)) was 5.00 ± 1.10 h and the Vd (Rat plasma kinetics; low dose (5 mg/kg)) was 93.5 ± 15.9 L/kg. For the same molecule, the t1/2 (Rat plasma kinetics; low dose (5 mg/kg)) was 17.4 ± 3.52 h, the AUC0-96h (Rat plasma kinetics; medium dose (10 mg/kg)) was 3200 ± 629 ng·h/mL and the “AUC0-∞” value (Rat plasma kinetics; medium dose (10 mg/kg)) was 3300 ± 696 ng·h/mL. For the same molecule, the CL (Rat plasma kinetics; medium dose (10 mg/kg)) was 52.5 ± 11.6 mL/min/kg, the Cmax (Rat plasma kinetics; medium dose (10 mg/kg)) was 147 ± 26.6 ng/mL and the MRT0-96h (Rat plasma kinetics; medium dose (10 mg/kg)) was 21.8 ± 2.80 h. The “MRT0-∞” value (Rat plasma kinetics; medium dose (10 mg/kg)) was 24.7 ± 4.71 h, the Tmax (Rat plasma kinetics; medium dose (10 mg/kg)) was 4.50 ± 1.22 h and the Vd (Rat plasma kinetics; medium dose (10 mg/kg)) was 82.8 ± 9.31 L/kg. The t1/2 (Rat plasma kinetics; medium dose (10 mg/kg)) was 18.8 ± 3.60 h, the “F (oral bioavailability)” value (Rat plasma kinetics; rat) was 93.8% and the “Q-T interval and corrected Q-T interval” value (Q-T interval) was “mild prolongation”. For the same molecule, the IC50 (HER-2) was 0.042 µM, the “activation of EGFR and downstream ERK” value (EGFR and ERK activation) was “significantly inhibited” and the IC50 (EGFR(T790M /L828R)) was 0.166 µM. For the same molecule, the IC50 (ABL1) was 0.153 µM, the “number of metabolites found in plasma” value (Metabolites in plasma [3]) was 7 and the “plasma protein binding rate” value (Plasma protein binding) was 91.9±0.857%. The “activation of VEGFR and downstream ERK” value (VEGFR and ERK activation) was “significantly inhibited” and the “number of metabolites found in plasma” value (Metabolites in plasma [4]) was 7.
